Measurements as given in ChEMBL document CHEMBL1153106, “Thyroid receptor agonists for the treatment of androgenetic alopecia” (Bioorg Med Chem Lett, 2010).
Activity calls are given as the source filed them. The calls are words filed in the database; no cut-off is given here.

Tests used:
[1] = molecular target: T1, Thyroid hormone receptor beta (Homo sapiens, UniProt P10828); assay: Binding affinity to thyroid receptor beta
T1 sequence (P10828 whole entry): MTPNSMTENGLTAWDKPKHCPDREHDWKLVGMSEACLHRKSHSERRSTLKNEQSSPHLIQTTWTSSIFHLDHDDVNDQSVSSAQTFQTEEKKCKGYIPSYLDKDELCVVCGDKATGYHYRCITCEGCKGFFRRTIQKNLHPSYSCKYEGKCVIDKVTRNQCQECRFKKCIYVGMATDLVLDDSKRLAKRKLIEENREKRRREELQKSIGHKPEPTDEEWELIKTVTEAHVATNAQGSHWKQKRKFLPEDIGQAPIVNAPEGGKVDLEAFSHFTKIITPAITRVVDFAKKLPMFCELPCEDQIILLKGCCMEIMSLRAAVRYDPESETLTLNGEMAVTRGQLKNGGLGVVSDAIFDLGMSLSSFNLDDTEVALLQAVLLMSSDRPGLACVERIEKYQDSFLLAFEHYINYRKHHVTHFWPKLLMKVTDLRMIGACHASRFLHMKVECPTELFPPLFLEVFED

[2] = molecular target: T2, Thyroid hormone receptor alpha (Homo sapiens, UniProt P10827); assay: Binding affinity to thyroid receptor alpha
T2 sequence (P10827 whole entry): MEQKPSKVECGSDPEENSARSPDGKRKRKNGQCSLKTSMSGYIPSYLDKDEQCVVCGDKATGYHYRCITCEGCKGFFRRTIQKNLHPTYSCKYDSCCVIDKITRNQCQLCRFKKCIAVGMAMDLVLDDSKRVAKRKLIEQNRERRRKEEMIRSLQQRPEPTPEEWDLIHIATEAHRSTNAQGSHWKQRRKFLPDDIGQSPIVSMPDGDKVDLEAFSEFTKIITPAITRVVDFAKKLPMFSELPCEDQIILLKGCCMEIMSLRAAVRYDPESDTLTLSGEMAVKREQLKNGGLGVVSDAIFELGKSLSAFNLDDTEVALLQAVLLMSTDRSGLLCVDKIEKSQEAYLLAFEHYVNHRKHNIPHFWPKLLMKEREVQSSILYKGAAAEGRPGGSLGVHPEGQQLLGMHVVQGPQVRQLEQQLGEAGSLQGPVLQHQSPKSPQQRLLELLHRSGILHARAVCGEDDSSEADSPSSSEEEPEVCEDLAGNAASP

[3] = tested on: Mus musculus; assay: Hair growth stimulatory activity in C3H/HeN mouse treated 5 days a week topically to shaved lower back twice daily for 4 weeks; assay type: functional
[4] = species: Macaca arctoides; assay: Hair growth stimulatory activity in bal stump-tailed monkey model; assay type: functional
[5] = molecular target: T3, Thyroid hormone receptor (Homo sapiens, UniProt P10827+P10828); assay: Binding affinity to thyroid hormone receptor in human HepG2 cells
T3 sequence (P10827 whole entry): T2 sequence (P10827 whole entry)
T3 sequence (P10828 whole entry): T1 sequence (P10828 whole entry)

[6] = tested on: Mus musculus; assay: Ratio of drug to minoxidil MED for hair growth stimulatory activity in female C3H/HeN mouse at 1 mg/mL, treated topically to shaved lower back as single dose; assay type: functional, organism-based
[7] = tested on: Mus musculus; assay: Ratio of drug to minoxidil MED for hair growth stimulatory activity in female C3H/HeN mouse at 0.1 mg/mL, treated topically to shaved lower back as single dose; assay type: functional, organism-based
[8] = Metabolic stability in rat liver microsomes; assay type: ADME, Microsome
[9] = Half life in rat hepatocytes; assay type: ADME, cell-based, Liver, Hepatocyte
[10] = Clearance in rat blood; assay type: ADME, organism-based
[11] = Intrinsic clearance in rat; assay type: ADME, organism-based; conditions: not recorded
[12] = Metabolic stability in […] human liver microsomes; assay type: ADME, Microsome
[13] = Half life in human hepatocytes; assay type: ADME, cell-based, Liver, Hepatocyte
[14] = Clearance in human blood; assay type: ADME, organism-based
[15] = Intrinsic clearance in human; assay type: ADME, organism-based; conditions: not recorded
[16] = Plasma clearance in rat at 0.5 mg/kg, iv; assay type: ADME, organism-based; parameters: dose 0.5 mg/kg, route intravenous
[17] = tested on: Rattus norvegicus; assay: Apparent volume of distribution at steady state in rat at 0.5 mg/kg, iv; assay type: ADME, organism-based; parameters: dose 0.5 mg/kg, route intravenous; conditions: in vivo
[18] = Terminal half life in rat at 0.5 mg/kg, iv; assay type: ADME, organism-based; parameters: dose 0.5 mg/kg, route intravenous; conditions: in vivo, read-out: beta t1/2 (converted)
[19] = tested on: Zone of skin; assay: Effect on transepidermal penetration in human cadaver skin assessed as maximal penetration rate after 28 hrs using Franz diffusion chamber; assay type: functional
[20] = tested on: Zone of skin; assay: Effect on transepidermal penetration in human cadaver skin assessed as total penetration after 40 hrs using Franz diffusion chamber; assay type: functional
[21] = tested on: Zone of skin; assay: Effect on transepidermal penetration in human cadaver skin assessed as drug distributed to dermis after 40 hrs using Franz diffusion chamber; assay type: functional
[22] = tested on: Zone of skin; assay: Effect on transepidermal penetration in human cadaver skin assessed as drug distributed to epidermis after 40 hrs using Franz diffusion chamber; assay type: functional
[23] = tested on: NIH3T3; assay: Phototoxicity in mouse 3T3 cells by neutral red uptake assay; assay type: cell-based
[24] = Drug level in bald stump-tailed monkey model after 2 months; assay type: ADME, organism-based; conditions: macaca arctoides, in vivo; read-out: Drug uptake
[25] = Drug level in bald stump-tailed monkey model after 3 months; assay type: ADME, organism-based; conditions: macaca arctoides, in vivo; read-out: Drug uptake
[26] = Drug level in bald stump-tailed monkey model after 4 months; assay type: ADME, organism-based; conditions: macaca arctoides, in vivo; read-out: Drug uptake
[27] = Toxicity in bald stump-tailed monkey skin after 4 months; assay type: tissue-based, Zone of skin; conditions: macaca arctoides, in vivo, 2922 h

**Q.** Which Ki [1] does the source give for `O=C(c1cc(Oc2c(Cl)cc(-n3ncc(=O)[nH]c3=O)cc2Cl)ccc1O)N1CCc2ccccc2C1` here?
**A.** 2 nM

**Q.** And the Ki [2]?
**A.** 126 nM

**Q.** And the MED [3]?
**A.** 0.1%

**Q.** For `O=c1cnn(-c2cc(Cl)c(Oc3ccc(O)c(Cc4ccc(F)cc4)c3)c(Cl)c2)c(=O)[nH]1`, which Ki [1] is on record?
**A.** 0.51 nM

**Q.** And the Ki [2]?
**A.** 8 nM

**Q.** What about the MED [3] of the same compound?
**A.** 0.01%

**Q.** Which Ki [1] does the source give for `Cc1cc(NC(=O)C(=O)O)cc(C)c1Oc1ccc(O)c2c1CCC2` here?
**A.** 0.5 nM

**Q.** And the Ki [2]?
**A.** 0.7 nM

**Q.** And the MED [3]?
**A.** 1%

**Q.** Which results are given for `Nc1cc(N2CCCCC2)nc(N)[n+]1[O-]` [MINOXIDIL]?
**A.** MED [3]: 2.5%; MED [4]: 2%

**Q.** Which Ki [1] does the source give for `Cc1cc(NC(=O)CC(=O)O)cc(Cl)c1Oc1ccc(O)c(S(=O)(=O)CC2CCC2)c1` here?
**A.** 0.5 nM

**Q.** What about the Ki [2] of the same compound?
**A.** 2.1 nM

**Q.** What about the MED [3] of the same compound?
**A.** 0.1%

**Q.** Which results are given for `O=C(c1cc(Oc2c(Cl)cc(-n3ncc(=O)[nH]c3=O)cc2Cl)ccc1O)N1CCCCC1`?
**A.** Ki [1]: 1 nM; Ki [2]: 20 nM; MED [3]: 0.1%

**Q.** Which Ki [1] does the source give for `Cc1cc(-n2ncc(=O)[nH]c2=O)cc(C)c1Oc1ccc(O)c(Cc2ccc(F)cc2)c1` here?
**A.** 0.4 nM

**Q.** What about the Ki [2] of the same compound?
**A.** 3 nM

**Q.** And the MED [3]?
**A.** 0.003%

**Q.** What about the EC50 [5] of the same compound?
**A.** 0.5 nM

**Q.** And the Activity [6]?
**A.** Active

**Q.** And the Activity [7]?
**A.** Active

**Q.** What about the half-life [8] of the same compound?
**A.** 40 min

**Q.** And the half-life [9]?
**A.** 45 min

**Q.** And the clearance [10]?
**A.** 51 mL/min/kg

**Q.** What about the CLint scaled [11] of the same compound?
**A.** 149 mL/min/kg

**Q.** What about the half-life [12] of the same compound?
**A.** 39 min

**Q.** What about the half-life [13] of the same compound?
**A.** 119 min

**Q.** What about the clearance [14] of the same compound?
**A.** 15 mL/min/kg

**Q.** And the CLint scaled [15]?
**A.** 29 mL/min/kg

**Q.** And the clearance [16]?
**A.** 40 mL/min/kg

**Q.** And the Vdss(app) [17]?
**A.** 4.88 L/kg

**Q.** And the half-life [18]?
**A.** 164 min

**Q.** What about the Activity [19] of the same compound?
**A.** 0.14 microg/cm2/h

**Q.** What about the Activity [20] of the same compound?
**A.** 6.17%

**Q.** What about the Activity [21] of the same compound?
**A.** 0.58%

**Q.** And the Activity [22]?
**A.** 9.88%

**Q.** And the Activity [23]?
**A.** Non-toxic

**Q.** And the MED [4]?
**A.** 0.1%

**Q.** What about the concentration at 1461 h [24] of the same compound?
**A.** < 2 ng/mL

**Q.** And the concentration at 2191.5 h [25]?
**A.** < 1 ng/mL

**Q.** And the concentration at 2922 h [26]?
**A.** < 1 ng/mL

**Q.** What about the Activity [27] of the same compound?
**A.** Non-toxic
